Patent US6492401B1, “N-[(substituted five-membered di- or triaza diunsaturated ring)carbonyl] guanidine derivatives for the treatment of ischemia” (Pfizer, Inc., priority 1998, dated 2002)

Target: T1, human NHE-1 (Homo sapiens, UniProt P19634)
T1 construct: expressed in transfected cells; host or cells: fibroblasts stably expressing human NHE-1 (cell line per Counillon et al., Mol. Pharmacol. 44:1041-1045, 1993)
Test: Measurement of human NHE-1 inhibitory activity (NHE-mediated recovery of intracellular pH after acidification, BCECF fluorescence)
Assay type: cell-based
Conditions: fibroblasts stably expressing human NHE-1
Protocol: Methodologies for measurement of human NHE-1 activity and inhibitor potency are based on those published by Watson et al., Am. J. Physiol., 24:G229-G238, 1991), where NHE-mediated recovery of intracellular pH is measured following intracellular acidification. Thus, fibroblasts stably expressing human NHE-1 (Counillon, L. et al., Mol. Pharmacol., 44:1041-1045 (1993) are plated onto collagen coated 96 well plates (50,000/well) and grown to confluence in growth media (DMEM high glucose, 10% fetal bovine serum, 50 u/ml penicillin and streptomycin). Confluent plates are incubated for 30 min at 37° C. with the pH sensitive fluorescent probe BCECF (5 μM; Molecular Probes, Eugene, Oreg.). BCECF loaded cells are incubated for 30 min at 37° C. in acid loading media (70 mM choline chloride, 50 mM NHCl4, 5 mM KCl, 1 mM MgCl2, 1.8 mM CaCl2, 5 mM glucose, 10 mM HEPES, pH 7.5), and then placed in a Fluorescent Imaging Plate Reader (Molecular Devices, CA). BCECF fluorescence is monitored using excitation and emission wavelengths of 485 nm and 525 nM, respectively. Intracellular acidification is initiated via rapid replacement of acid loading media with recovery media (120 mM NaCl, 5 mM KCl, 1 mM MgCl2, 1.8 mM CaCl2, 5 mM glucose, 10 mM HEPES, pH 7.5)±test compound, and NHE-mediated recovery of intracellular pH is monitored as the subsequent time-dependent increase BCECF fluorescence.

T1 sequence (P19634 whole entry): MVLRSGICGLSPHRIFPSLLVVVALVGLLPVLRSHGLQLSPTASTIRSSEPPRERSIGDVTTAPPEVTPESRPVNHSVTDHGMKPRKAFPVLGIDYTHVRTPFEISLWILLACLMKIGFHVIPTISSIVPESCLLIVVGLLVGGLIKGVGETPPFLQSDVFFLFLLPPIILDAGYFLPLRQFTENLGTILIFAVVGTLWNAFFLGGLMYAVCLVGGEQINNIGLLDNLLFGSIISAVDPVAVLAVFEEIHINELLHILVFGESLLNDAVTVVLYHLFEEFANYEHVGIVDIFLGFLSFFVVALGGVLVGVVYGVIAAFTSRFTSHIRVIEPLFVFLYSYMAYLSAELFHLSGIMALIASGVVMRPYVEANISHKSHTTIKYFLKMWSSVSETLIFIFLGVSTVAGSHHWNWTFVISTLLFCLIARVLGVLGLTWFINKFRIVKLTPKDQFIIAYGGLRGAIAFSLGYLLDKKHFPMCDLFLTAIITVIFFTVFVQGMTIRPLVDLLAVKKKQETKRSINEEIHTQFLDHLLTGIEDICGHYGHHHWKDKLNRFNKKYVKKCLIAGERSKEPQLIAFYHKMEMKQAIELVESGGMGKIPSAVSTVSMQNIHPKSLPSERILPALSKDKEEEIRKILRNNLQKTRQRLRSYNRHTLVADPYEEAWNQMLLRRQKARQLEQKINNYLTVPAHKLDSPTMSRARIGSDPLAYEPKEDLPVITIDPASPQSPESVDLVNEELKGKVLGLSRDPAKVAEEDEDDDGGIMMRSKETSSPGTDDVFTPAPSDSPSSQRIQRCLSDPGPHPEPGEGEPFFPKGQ

IC50: 500 nM
Compound: CC(C)c1ccc(C(=O)NC(=N)N)cc1S(C)(=O)=O [HOE-642]
